Source: patent publication US20250081967A1, “PESTICIDALLY ACTIVE HETEROCYCLIC DERIVATIVES WITH SULFOXIMINE CONTAINING SUBSTITUENTS” (SYNGENTA CROP PROTECTION AG, priority 2021, published 2025)

What was measured:
Type in all cases: in vivo
Euschistus heros = experiment: Activity against Euschistus heros (neotropical brown stink bug), soybean leaf; conditions: 120 h, application rate 200 ppm, N-2 nymphs, 5 days after infestation, read-out: effect in at least one of the two categories (mortality or growth inhibition)
Protocol: Example B7: Activity Against Euschistus heros (Neotropical Brown Stink Bug)
Soybean leaf on agar in 24-well microtiter plates were sprayed with aqueous test solutions prepared from 10′000 ppm DMSO stock solutions. After drying the leaf were infested with N-2 nymphs. The samples were assessed for mortality and growth inhibition in comparison to untreated samples 5 days after infestation.

Plutella xylostella [1] = experiment: Activity against Plutella xylostella (diamond back moth), artificial diet, L2 larvae; conditions: 120 h, application rate 200 ppm, 5 days after infestation, read-out: effect in at least one of the two categories (mortality or growth inhibition)
Protocol: Example B2: Activity Against Plutella xylostella (Diamond Back Moth)
(§1) 24-well microtiter plates with artificial diet were treated with aqueous test solutions prepared from 10′000 ppm DMSO stock solutions by pipetting. After drying, the plates were infested with L2 larvae (10 to 15 per well). The samples were assessed for mortality and growth inhibition in comparison to untreated samples 5 days after infestation.

Bemisia tabaci = experiment: Activity against Bemisia tabaci (cotton white fly), cotton leaf discs; conditions: for mortality at 200 ppm: foliar, 144 h, application rate 200 ppm, adult white flies, 6 days after incubation
Protocol: Example B6: Activity Against Bemisia tabaci (Cotton White Fly)
Cotton leaf discs were placed on agar in 24-well microtiter plates and sprayed with aqueous test solutions prepared from 10′000 ppm DMSO stock solutions. After drying the leaf discs were infested with adult white flies. The samples were checked for mortality 6 days after incubation.

Diabrotica balteata = experiment: Activity against Diabrotica balteata (corn root worm), maize sprouts; conditions: 96 h, application rate 200 ppm, L2 larvae, 4 days after infestation, read-out: effect in at least one of the two categories (mortality or growth inhibition)
Protocol: Example B3: Activity Against Diabrotica Balteata (Corn Root Worm)
as §1, with “Maize sprouts placed onto an agar layer in 24-well” for “24-well”, “plates” for “plates with artificial diet”, “spraying.” for “pipetting.”, “(6” for “(10”, “10” for “15”, “4” for “5”

Myzus persicae [2] = experiment: Activity against Myzus persicae (green peach aphid), systemic activity, pea seedlings; conditions: Myzus persicae
Protocol: Example B5: Activity Against Myzus persicae (Green Peach Aphid) Systemic Activity
Roots of pea seedlings infested with an aphid population of mixed ages were placed directly in the aqueous test solutions prepared from 10′000 DMSO stock solutions. The samples were assessed for mortality 6 days after placing seedlings in test solutions.

[3] = tested on: Frankliniella occidentalis; experiment: Activity against Frankliniella occidentalis (western flower thrips), sunflower leaf discs; conditions: foliar, 168 h, application rate 200 ppm, mixed ages, 7 days after infestation
Protocol: Example B8: Activity Against Frankliniella occidentalis (Western Flower Thrips)
Sunflower leaf discs were placed on agar in 24-well microtiter plates and sprayed with aqueous test solutions prepared from […] stock solutions. After drying the leaf discs were infested with a Frankliniella population of mixed ages. The samples were assessed for mortality 7 days after infestation.

Spodoptera littoralis = experiment: Activity against Spodoptera littoralis (Egyptian cotton leaf worm), cotton leaf discs; conditions: foliar, 72 h, application rate 200 ppm, L1 larvae, 3 days after infestation, read-out: control (mortality, anti-feeding effect or growth inhibition)
Summary of the method: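 Cotton leaf discs on agar sprayed with aqueous test solutions made from 10′000 ppm DMSO stocks, dried, then infested with five L1 larvae. Mortality, anti-feeding and growth inhibition scored versus untreated samples 3 days after infestation; control given when any category exceeds untreated.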

Myzus persicae [4] = experiment: Activity against Myzus persicae (green peach aphid), feeding/contact activity, sunflower leaf discs; conditions: Myzus persicae, foliar, 144 h, application rate 200 ppm; feeding/contact; 6 days after infestation
Protocol: Example B4: Activity Against Myzus persicae (Green Peach Aphid) Feeding/Contact Activity
Sunflower leaf discs were placed on agar in a 24-well microtiter plate and sprayed with aqueous test solutions prepared from 10′000 ppm DMSO stock solutions. After drying, the leaf discs were infested with an aphid population of mixed ages. The samples were assessed for mortality 6 days after infestation.

Tetranychus urticae = experiment: Activity against Tetranychus urticae (two-spotted spider mite), bean leaf discs; conditions: foliar, 192 h, application rate 200 ppm, mixed population (mobile stages), 8 days after infestation
Protocol: Example B10: Activity Against Tetranychus urticae (Two-Spotted Spider Mite)
Bean leaf discs on agar in 24-well microtiter plates were sprayed with aqueous test solutions prepared from 10′000 ppm DMSO stock solutions. After drying the leaf discs were infested with a mite population of mixed ages. The samples were assessed for mortality on mixed population (mobile stages) 8 days after infestation.

Plutella xylostella [5] = experiment: Activity against Plutella xylostella (diamond back moth), artificial diet, eggs; conditions: 192 h, application rate 200 ppm, 8 days after infestation, read-out: effect in at least one of the two categories (mortality or growth inhibition)
Summary of the method: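 Artificial diet in wells treated with aqueous dilutions of 10′000 ppm DMSO stocks, dried, then infested with Plutella eggs. Mortality and growth inhibition scored against untreated samples 8 days after infestation.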

Chilo suppressalis = experiment: Activity against Chilo suppressalis (striped rice stemborer), artificial diet; conditions: 144 h, application rate 200 ppm, L2 larvae, 6 days after infestation
Protocol: Example B11: Activity Against Chilo suppressalis (Striped Rice Stemborer)
as §1, with “(6-8” for “(10 to 15”, “mortality, anti-feeding effect,” for “mortality”, “6” for “5”, “infestation. Control of Chilo suppressalis by a test sample is given when at least one of the categories mortality, anti-feedant effect, and growth inhibition is higher than the untreated sample.” for “infestation.”

[6] = 144 h, test rate 24 ppm, systemic, 6 days after placing seedlings in test solutions

| Compound | percent effect (mortality or growth inhibition) at 200 ppm (Euschistus heros) [%] | percent effect (mortality or growth inhibition) at 200 ppm (Plutella xylostella [1]) [%] | mortality at 200 ppm (Bemisia tabaci) [%] | percent effect (mortality or growth inhibition) at 200 ppm (Diabrotica balteata) [%] | mortality at 24 ppm (Myzus persicae [2]; [6]) [%] | mortality at 200 ppm [3] [%] | percent control (mortality, anti-feedant effect or growth inhibition) at 200 ppm (Spodoptera littoralis) [%] | mortality at 200 ppm (Myzus persicae [4]) [%] | mortality at 200 ppm (Tetranychus urticae) [%] | percent effect (mortality or growth inhibition) at 200 ppm (Plutella xylostella [5]) [%] | percent control (mortality, anti-feedant effect or growth inhibition) at 200 ppm (Chilo suppressalis) [%] | Mortality (%) (Bemisia tabaci; concentration 50 ppm) | mortality at 24 ppm (Myzus persicae [2]; Myzus persicae (systemic), concentration 24 ppm) [%] |
| --- | --- | --- | --- | --- | --- | --- | --- | --- | --- | --- | --- | --- | --- |
| CCS(=N)(=O)c1cc(OC(C)(C)C#N)cnc1-c1nc2cc(C(F)(F)F)n(C3CC3)c(=O)c2n1C (racemic) [Compound P1, 2-[[6-[5-cyclopropyl-3-methyl-4-oxo-6-(trifluoromethyl)imidazo[4,5-c]pyridin-2-yl]-5-(ethylsulfonimidoyl)-3-pyridyl]oxy]-2-methyl-propanenitrile] | ≥ 80 | ≥ 80 | ≥ 80 | ≥ 80 | ≥ 80 | ≥ 80 | ≥ 80 | ≥ 80 |  |  |  |  |  |
| CCS(=N)(=O)c1cc(OC(C)(C)C#N)cnc1-c1cn2cnc(SC(F)(F)F)cc2n1 (racemic) [Compound P7, 2-[[5-(ethylsulfonimidoyl)-6-[7-(trifluoromethylsulfanyl)imidazo[1,2-c]pyrimidin-2-yl]-3-pyridyl]oxy]-2-methyl-propanenitrile] | ≥ 80 |  | ≥ 80 | ≥ 80 |  | ≥ 80 |  | ≥ 80 | ≥ 80 | ≥ 80 |  |  |  |
| CCS(=N)(=O)c1cc(C2(C#N)CC2)cnc1-c1nc2cc(C(F)(F)F)ncc2n1C (racemic) [Compound P10, 1-[5-(ethylsulfonimidoyl)-6-[3-methyl-6-(trifluoromethyl)imidazo[4,5-c]pyridin-2-yl]-3-pyridyl]cyclopropanecarbonitrile] |  |  | ≥ 80 |  | ≥ 80 |  |  | ≥ 80 |  | ≥ 80 | ≥ 80 |  |  |
| CCS(=N)(=O)c1cc(OC(C)(C)C#N)cnc1-c1nc2cc(C(F)(F)F)ncc2n1C (racemic) [Compound P13, 2-[[5-(ethylsulfonimidoyl)-6-[3-methyl-6-(trifluoromethyl)imidazo[4,5-c]pyridin-2-yl]-3-pyridyl]oxy]-2-methyl-propanenitrile] | ≥ 80 | ≥ 80 | ≥ 80 | ≥ 80 | ≥ 80 |  | ≥ 80 | ≥ 80 | ≥ 80 |  |  |  |  |
| CCS(=N)(=O)c1cc(OC(C)(C)C#N)cnc1-c1nc2cc(C(F)(F)F)n(C3CC3)c(=O)c2n1C (single isomer, unassigned) [Compound P1-B, 2-[[6-[5-cyclopropyl-3-methyl-4-oxo-6-(trifluoromethyl)imidazo[4,5-c]pyridin-2-yl]-5-(ethylsulfonimidoyl)-3-pyridyl]oxy]-2-methyl-propanenitrile] |  |  |  |  |  | ≥ 80 |  |  |  | ≥ 80 |  |  |  |
| CCS(=N)(=O)c1cc(OC(C)(C)C#N)cnc1-c1cn2cnc(SC(F)(F)F)cc2n1 (single isomer, unassigned) [Compound P7-B, 2-[[5-(ethylsulfonimidoyl)-6-[7-(trifluoromethylsulfanyl)imidazo[1,2-c]pyrimidin-2-yl]-3-pyridyl]oxy]-2-methyl-propanenitrile] |  |  |  |  |  | ≥ 80 |  |  |  | ≥ 80 |  | 80 |  |
| CCS(=N)(=O)c1cc(OC(C)(C)C#N)cnc1-c1cn2cnc(C(F)(F)F)cc2n1 (single isomer, unassigned) [Compound P11-A, 2-[[5-(ethylsulfonimidoyl)-6-[7-(trifluoromethyl)imidazo[1,2-c]pyrimidin-2-yl]-3-pyridyl]oxy]-2-methyl-propanenitrile] |  |  |  | ≥ 80 | ≥ 80 | ≥ 80 |  | ≥ 80 |  | ≥ 80 |  |  | 100 |
| CCn1c(C(F)(F)F)cc2nc(-c3ncc(OC(C)(C)C#N)cc3S(=N)(=O)CC)n(C)c2c1=O (single isomer, unassigned) [Compound P19-A, 2-[[6-[5-ethyl-3-methyl-4-oxo-6-(trifluoromethyl)imidazo[4,5-c]pyridin-2-yl]-5-(ethylsulfonimidoyl)-3-pyridyl]oxy]-2-methyl-propanenitrile] | ≥ 80 |  | ≥ 80 | ≥ 80 | ≥ 80 |  | ≥ 80 | ≥ 80 | ≥ 80 | ≥ 80 |  |  |  |
| CCn1c(C(F)(F)F)cc2nc(-c3ncc(OC(C)(C)C#N)cc3S(=N)(=O)CC)n(C)c2c1=O (single isomer, unassigned) [Compound P19-B, 2-[[6-[5-ethyl-3-methyl-4-oxo-6-(trifluoromethyl)imidazo[4,5-c]pyridin-2-yl]-5-(ethylsulfonimidoyl)-3-pyridyl]oxy]-2-methyl-propanenitrile] |  |  |  |  |  | ≥ 80 |  |  |  |  |  |  |  |
